Assay results as given in publication PMC12336439 (Archiv Der Pharmazie, 2025).
Marks after values point to notes of the source that are not given here.

Legend:
Type in all cases: binding
[1] = target: T1, USP7asoc (active site only cysteine) (Homo sapiens, UniProt Q93009, C300S/C315S/C334S/C478S/C488S/C510S); experiment: Differential scanning fluorimetry (DSF), melting temperature shift of USP7asoc mutant; details: for ∆T m ± SD USP7asoc: 8 µM protein, 250 µM compound (1:31.25)
T1 construct: (208‐560, C300/315/334/448/478/510S); made in house
Method: USP7asoc only retains the catalytic Cys223 while all the other six cysteines are mutated to serine. DSF was selected for initial assessment since it is an efficient and rapid primary screening method readily available to our lab. […] An important consideration when assessing covalent inhibitors is the time dependence of covalent target occupancy and thus potency, which is determined by the reaction kinetics of the covalent binding event. To allow for drawing conclusions on compounds with slower reaction kinetics, incubation times of 30 min, 4 h, and 24 h at 20°C were chosen for the DSF screen with USP7 (Table 1 and Figures 2 and 3). The threshold at which compounds were considered (de‐)stabilizers was defined at 0.5°C. In parallel, the intrinsic reactivity of a set of representative compounds was evaluated in a glutathione reactivity assay. […] The expression and purification of USP7 catalytic domain (USP7CD) (208‐560) and USP7asoc (active site only cysteine) by using a pET24a(+)_HLT_USP7 construct were performed as previously described. […] For the USP7asoc, six of the seven cysteines are mutated to serines (208‐560, C300/315/334/448/478/510S). All utilized protein sequences are depicted in Supporting Information S2: Table S.3.1. The melting temperatures of USP7 and USP7asoc in the presence or absence of fragments were determined by DSF on a Qiagen Rotor‐Q Model‐5‐Plex HRM real‐time PCR instrument (Qiagen, Hilden, Germany). SYPRO Orange (Life Technologies Corporation, Eugene, OR, USA) was used as a fluorescent dye at a final concentration of 5x. The protein concentration was 8 µM, and the final compound concentration was 250 µM, corresponding to a protein‐to‐compound ratio of 1:31.25. All compounds were dissolved in dimethyl sulfoxide (DMSO) and the proteins in Tris buffer (25 mM Tris pH 8.0, 150 mM NaCl, 5 mM TCEP, 5% (v/v) DMSO). All measurements were performed after 30 min, 4 h, and 24 h of incubation and at least in triplicate. DSF experiments were carried out with a constant heating rate of 270°C/h. The temperature was ramped from 28°C to 60°C–70°C with excitation and emission filters set at 470 nm and 610 nm, respectively. The melting temperatures (T m) of USP7 and USP7asoc were determined from the maxima of the first derivatives of the melting curves in OriginPro2020 (OriginLab, Northampton, MA, USA). The ∆T m was calculated by subtraction of the T m of the protein sample with pure DMSO from the T m of the protein sample mixed with compound. Error propagation was used to average multiple runs for a compound. A compound was considered to be a hit if the shift in the ∆T m was at least 0.50°C [55].

USP7 = target: T2, USP7 (Homo sapiens, UniProt Q93009); experiment: Intact protein MS (UHPLC-ESI-MS), covalent modification of USP7; details: 24 h incubation at 20°C, protein-to-compound ratio 1:31.25
T2 construct: USP7 catalytic domain (USP7CD) (208‐560); made in house
Method: The DSF results described above were validated by UHPLC‐ESI‐MS to verify possible covalent binding through a corresponding mass shift. Intact protein MS is an important screening method in irreversible‐covalent hit identification and is especially suitable for covalent fragment‐based drug discovery (FBDD). It allows for the identification of covalent binders by detecting covalent protein‐compound adducts, thus making use of the stability of the covalent bond.
USP7 was prepared in Tris buffer (25 mM Tris pH 8.0, 150 mM NaCl, 5 mM TCEP) with a protein‐to‐compound ratio of 1:31.25 and 5% (v/v) DMSO. The protein‐compound mixtures were all incubated at 20°C for 24 h on a rotating shaker. The analysis of intact protein mass was carried out using UHPLC‐ESI‐MS measurements, with data acquisition and data analysis as previously described.

USP7asoc = target: T3, USP7asoc (Homo sapiens, UniProt Q93009, C300S/C315S/C334S/C478S/C488S/C510S); experiment: Intact protein MS (UHPLC-ESI-MS), covalent modification of USP7asoc; details: 24 h incubation at 20°C, protein-to-compound ratio 1:31.25
T3 construct: (208‐560, C300/315/334/448/478/510S); made in house
Method: The DSF results described above were validated by UHPLC‐ESI‐MS to verify possible covalent binding through a corresponding mass shift. Intact protein MS is an important screening method in irreversible‐covalent hit identification and is especially suitable for covalent fragment‐based drug discovery (FBDD). It allows for the identification of covalent binders by detecting covalent protein‐compound adducts, thus making use of the stability of the covalent bond. USP7 was prepared in Tris buffer (25 mM Tris pH 8.0, 150 mM NaCl, 5 mM TCEP) with a protein‐to‐compound ratio of 1:31.25 and 5% (v/v) DMSO. The protein‐compound mixtures were all incubated at 20°C for 24 h on a rotating shaker. The analysis of intact protein mass was carried out using UHPLC‐ESI‐MS measurements, with data acquisition and data analysis as previously described.

T3 sequence (Q93009 with tags, fused parts or gaps C300S/C315S/C334S/C478S/C488S/C510S): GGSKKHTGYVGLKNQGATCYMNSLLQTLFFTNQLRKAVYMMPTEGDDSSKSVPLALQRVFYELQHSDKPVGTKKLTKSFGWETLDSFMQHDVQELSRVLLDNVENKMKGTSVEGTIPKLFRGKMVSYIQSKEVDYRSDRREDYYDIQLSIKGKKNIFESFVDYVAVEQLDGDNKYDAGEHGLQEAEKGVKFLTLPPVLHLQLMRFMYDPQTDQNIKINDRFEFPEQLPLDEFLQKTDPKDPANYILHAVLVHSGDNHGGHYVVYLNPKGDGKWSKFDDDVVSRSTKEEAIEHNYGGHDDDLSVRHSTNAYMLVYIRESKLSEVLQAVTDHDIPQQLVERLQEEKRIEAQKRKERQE
T1 sequence (Q93009 with tags, fused parts or gaps C300S/C315S/C334S/C478S/C488S/C510S): as above
T2 sequence (Q93009 with tags, fused parts or gaps): as the sequence (Q93009 with tags, fused parts or gaps C300S/C315S/C334S/C478S/C488S/C510S) above, with S96C, S111C, S130C, S274C, S284C, S306C counted along it

Row | SMILES | ∆T m ± SD USP7asoc ([1]; 30 min incubation at 20°C) | ∆T m ± SD USP7asoc ([1]; 4 h incubation at 20°C) | ∆T m ± SD USP7asoc ([1]; 24 h incubation at 20°C) | ∆T m of small shoulder (second smaller peak) of the melting curve of USP7asoc ([1]; 24 h incubation, 250 µM compound) | protein species in deconvoluted mass spectrum of USP7 (USP7) | protein species in deconvoluted mass spectrum of USP7asoc (USP7asoc)
1 | CCn1cc(-c2cccc3cnc(Nc4nc(F)ccc4[N+](=O)[O-])cc23)cn1 [7c, 5‐(1‐Ethyl‐1H‐pyrazol‐4‐yl)‐N‐(6‐fluoro‐3‐nitropyridin‐2‐yl)isoquinolin‐3‐amine] | –0.25 ± 0.23 °C | 0.20 ± 0.09 °C | 0.23 ± 0.08 ^b °C | – | mainly showed the attachment of a single molecule to USP7 and USP7asoc | mainly showed the attachment of a single molecule to USP7 and USP7asoc
2 | Cn1ccc(-c2cccc3cnc(Nc4nc(F)ccc4[N+](=O)[O-])cc23)c1 [7b, N‐(6‐Fluoro‐3‐nitropyridin‐2‐yl)‐5‐(1‐methyl‐1H‐pyrrol‐3‐yl)isoquinolin‐3‐amine] | 0.05 ± 0.09 °C | 0.45 ± 0.12 °C | 0.38 ± 0.06 °C | – | unmodified protein species as a main peak for both USP7 and USP7asoc | unmodified protein species as a main peak for both USP7 and USP7asoc
3 | CCCn1cc(-c2cccc3cnc(Nc4nc(F)ccc4[N+](=O)[O-])cc23)cn1 [7d, N‐(6‐Fluoro‐3‐nitropyridin‐2‐yl)‐5‐(1‐propyl‐1H‐pyrazol‐4‐yl)isoquinolin‐3‐amine] | 0.00 ± 0 °C | 0.03 ± 0.08 °C | 0.35 ± 0.06 °C | – | single modified protein as the main signal | single modified protein as the main signal

The next lines start with results.

Row | ∆T m ± SD USP7asoc ([1]; 30 min incubation at 20°C) | ∆T m ± SD USP7asoc ([1]; 4 h incubation at 20°C) | ∆T m ± SD USP7asoc ([1]; 24 h incubation at 20°C) | ∆T m of small shoulder (second smaller peak) of the melting curve of USP7asoc ([1]; 24 h incubation, 250 µM compound) | SMILES | protein species in deconvoluted mass spectrum of USP7 (USP7) | protein species in deconvoluted mass spectrum of USP7asoc (USP7asoc)
4 | –0.30 ± 0.12 °C | –0.15 ± 0 °C | 0.05 ± 0.17 °C | – | O=[N+]([O-])c1ccc(F)nc1Nc1cc2c(-c3ccc(-c4ccncc4)cc3)cccc2cn1 [7i, N‐(6‐Fluoro‐3‐nitropyridin‐2‐yl)‐5‐[4‐(pyridin‐4‐yl)phenyl]isoquinolin‐3‐amine] | unmodified USP7 and USP7asoc as the main peak | unmodified USP7 and USP7asoc as the main peak
5 | –0.35 ± 0.09 °C | –0.13 ± 0.04 °C | 0.40 ± 0.09 ^b °C | about –5 °C | O=[N+]([O-])c1ccc(F)nc1Nc1cc2c(-c3cnn(C4CC4)c3)cccc2cn1 [7e, 5‐(1‐Cyclopropyl‐1H‐pyrazol‐4‐yl)‐N‐(6‐fluoro‐3‐nitropyridin‐2‐yl)isoquinolin‐3‐amine] | mono‐arylated USP7 and USP7asoc species as main peaks | mono‐arylated USP7 and USP7asoc species as main peaks
